From paper PMC4387200 (Toxicology and applied pharmacology, 2015)
Where two headings read alike, the source gives them in different places.

Assays:
[1] = biological target: T1, Human PXR (Homo sapiens, UniProt O75469); test: in vitro
T1 sequence (O75469 107-434): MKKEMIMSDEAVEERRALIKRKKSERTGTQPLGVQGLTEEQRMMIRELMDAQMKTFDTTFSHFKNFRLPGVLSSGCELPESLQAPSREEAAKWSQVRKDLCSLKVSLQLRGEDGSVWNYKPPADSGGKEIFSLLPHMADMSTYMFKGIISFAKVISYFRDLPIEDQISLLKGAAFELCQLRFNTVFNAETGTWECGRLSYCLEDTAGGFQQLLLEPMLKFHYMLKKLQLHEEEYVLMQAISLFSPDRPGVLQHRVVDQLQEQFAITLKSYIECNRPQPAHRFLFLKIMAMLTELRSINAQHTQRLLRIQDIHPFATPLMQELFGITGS

[2] = tested on: polar bear PXR; test: in vitro
[3] = biological target: T1, Human PXR; details: maximum response as percentage of the maximum response to rifampicin
[4] = tested on: Polar bear PXR; details: for Polar bear PXR Relative activation (%): maximum response as percentage of the maximum response to rifampicin; for Relative max induction (polar bear vs human): ratio of maximum induction via pbPXR to hPXR
[5] = biological target: T1, Human PXR
[6] = tested on: Polar bear PXR

| Molecule | Human PXR Relative activation (%) [3] [%] | Polar bear PXR Relative activation (%) [4] [%] | Relative max induction (polar bear vs human) [4] | also measured |
| --- | --- | --- | --- | --- |
| Clc1cccc(Cl)c1Cl [1,2,3-trichlorobenzene (1,2,3-TCB), 1,2,3-trichlorobenzene] | 9 | 9 | 0.9 | fold induction [1]: 0.9 ± 0.1; fold induction [2]: 0.9 ± 0.3 |
| Clc1ccc(Cl)c(Cl)c1 [1,2,4-trichlorobenzene (1,2,4-TCB), 1,2,4-trichlorobenzene] | 10 | 9 | 0.9 | fold induction [1]: 1 ± 0.1; fold induction [2]: 0.9 ± 0.3 |
| Clc1ccc(C(c2ccc(Cl)cc2)C(Cl)(Cl)Cl)cc1 [4,4′-DDT, Dichlorodiphenyltrichloroethane] | 53 | 42 | 0.8 | Human PXR RECh20 [5]: 9.3 µM; Polar bear PXR RECh20 [6]: 11 µM |
| Brc1ccc(Oc2ccc(Br)cc2Br)cc1 [BDE 28] | 31 | 9 | 0.3 | Human PXR RECh20 [5]: 11 µM |
| Brc1ccc(Oc2ccc(Br)cc2Br)c(Br)c1 [BDE 47] | 59 | 16 | 0.3 | Human PXR RECh20 [5]: 5 µM |
| Brc1ccc(Oc2cc(Br)c(Br)cc2Br)c(Br)c1 [BDE 99] | 52 | 16 | 0.3 | Human PXR RECh20 [5]: 4.8 µM |
| Brc1ccc(Oc2c(Br)cc(Br)cc2Br)c(Br)c1 [BDE 100] | 39 | 14 | 0.4 | Human PXR RECh20 ([5]; human): 6.6 µM; fold induction [1]: 3.8 ± 0.3; fold induction [2]: 1.3 ± 0.2 |
| Brc1cc(Br)c(Oc2cc(Br)c(Br)cc2Br)cc1Br [BDE 153] | 45 | 17 | 0.4 | Human PXR RECh20 ([5]; human): 3.9 µM; fold induction [1]: 4.4 ± 0.2; fold induction [2]: 1.7 ± 0.1 |
| Brc1c(Br)c(Br)c(Oc2c(Br)c(Br)c(Br)c(Br)c2Br)c(Br)c1Br [BDE 209] | 26 | 19 | 0.7 | Human PXR RECh20 [5]: 16 µM |
| Clc1ccccc1C(c1ccccc1)(c1ccccc1)n1ccnc1 [Clotrimazole, reference compound] |  |  |  | Polar bear PXR RECh20 ([6]; polar bear): 0.63 µM |
| C[Si]1(C)O[Si](C)(C)O[Si](C)(C)O[Si](C)(C)O[Si](C)(C)O1 [Decamethylcyclopentasiloxane (D5), Decamethylcyclopentasiloxane] | 22 | 16 | 0.7 | Human PXR RECh20 ([5]; human): 35 µM; fold induction [1]: 2.2 ± 0.2; fold induction [2]: 1.6 ± 0.2 |
| C[Si]1(C)O[Si](C)(C)O[Si](C)(C)O[Si](C)(C)O1 [Octamethylcyclotetrasiloxane (D4), Octamethylcyclotetrasiloxane] | 44 | 11 | 0.3 | fold induction [1]: 4.3 ± 0.3; fold induction [2]: 1.1 ± 0.4 |
| Clc1ccc(-c2ccc(Cl)cc2Cl)cc1 [PCB 28] | 19 | 12 | 0.6 |  |
| Clc1ccc(-c2ccc(Cl)cc2Cl)c(Cl)c1 [PCB 47] | 27 | 14 | 0.5 |  |
| Clc1ccc(Cl)c(-c2cc(Cl)ccc2Cl)c1 [PCB 52] | 11 | 10 | 0.9 |  |
| Clc1ccc(-c2ccc(Cl)c(Cl)c2Cl)cc1 [PCB 60] | 10 | 8 | 0.7 |  |

| Molecule | Human PXR Relative activation (%) [3] [%] | Polar bear PXR Relative activation (%) [4] [%] | Relative max induction (polar bear vs human) [4] | also measured |
| --- | --- | --- | --- | --- |
| Clc1cc(Cl)c(-c2cccc(Cl)c2Cl)cc1Cl [PCB 97] | 25 | 28 | 1.1 |  |
| Clc1ccc(Cl)c(-c2cc(Cl)c(Cl)cc2Cl)c1 [PCB 101] | 34 | 19 | 0.6 |  |
| Clc1ccc(-c2cc(Cl)c(Cl)cc2Cl)cc1Cl [PCB 118] | 25 | 14 | 0.6 | Human PXR RECh20 [5]: 34 µM |
| Clc1cc(Cl)c(-c2ccc(Cl)c(Cl)c2Cl)cc1Cl [PCB 138] | 12 | 11 | 0.9 |  |
| Clc1ccc(Cl)c(-c2c(Cl)c(Cl)cc(Cl)c2Cl)c1 [PCB 151] | 72 | 15 | 0.2 |  |
| Clc1ccc(-c2cc(Cl)c(Cl)c(Cl)c2Cl)c(Cl)c1Cl [PCB 170] | 24 | 15 | 0.6 |  |
| Clc1cc(Cl)c(-c2c(Cl)cc(Cl)c(Cl)c2Cl)cc1Cl [PCB 183] | 28 | 31 | 1.1 |  |
| Clc1cc(Cl)c(-c2c(Cl)cc(Cl)c(Cl)c2Cl)c(Cl)c1 [PCB 184] | 33 | 19 | 0.6 |  |
| Clc1ccc(-c2c(Cl)c(Cl)c(Cl)c(Cl)c2Cl)cc1Cl [PCB 190] | 46 | 18 | 0.4 |  |
| O=C(O)C(F)(F)C(F)(F)C(F)(F)C(F)(F)C(F)(F)C(F)(F)C(F)(F)C(F)(F)F [Perfluorononanoic acid (PFNA), Perfluorononanoic acid] | 11 | 10 | 0.9 |  |
| CO[C@H]1/C=C/O[C@@]2(C)Oc3c(C)c(O)c4c(O)c(c(/C=N/N5CCN(C)CC5)c(O)c4c3C2=O)NC(=O)/C(C)=C\C=C\[C@H](C)[C@H](O)[C@@H](C)[C@@H](O)[C@@H](C)[C@H](OC(C)=O)[C@@H]1C [Rifampicin, reference compound] |  |  |  | Human PXR RECh20 ([5]; human): 0.46 µM; Polar bear PXR RECh20 ([6]; polar bear): 1.1 µM |
| CC(C)(c1cc(Br)c(O)c(Br)c1)c1cc(Br)c(O)c(Br)c1 [Tetrabromobisphenol A (TBBPA), Tetrabromobisphenol A] |  |  |  | Human PXR RECh20 [5]: 29 µM; Human PXR Relative activation (%) [5]: 32%; Polar bear PXR RECh20 [6]: 35 µM; Polar bear PXR Relative activation (%) [6]: 39%; Relative max induction (polar bear vs human) [6]: 1.2 |
| C=CC1(C)OC(=O)N(c2cc(Cl)cc(Cl)c2)C1=O (stereo not drawn) [Vinclozolin] | 38 | 11 | 0.3 | Human PXR RECh20 ([5]; human): 44 µM; fold induction [1]: 3.7 ± 0.2; fold induction [2]: 1.1 ± 0.2 |
| O=c1cc(-c2ccccc2)oc2ccc3ccccc3c12 [β-naphtoflavone (BNF), β-naphtoflavone, reference compound] | 28 | 21 | 0.8 | Human PXR RECh20 [5]: 0.069 µM; Polar bear PXR RECh20 [6]: 0.69 µM |
| Hexabromocyclododecane [HBCD technical mixture] |  |  |  | Polar bear PXR RECh20 [6]: 1.7 µM |
